This is an account of results in patent US8969413B2.

The ED50 is the midpoint of the dose-response relation. A word on the IC50: it is the concentration needed to halve the response being measured.

Series [1] addresses γ-aminobutyric acid aminotransferase (GABA-AT) (Sus scrofa, UniProt P80147). The settings on record: cited from earlier work.
Series [2] concerns Mice. Description: minimal clonic seizure (6 Hz) test. In kind it is in vivo. The following applies: Single IP drug dose, 3 seconds; for ED50: Mus musculus, ip; for ED50 / 6 Hz TPE: corneal electrode. From the text: Some clinically useful AEDs are ineffective in the standard MES and scMET tests but still have anticonvulsant activities in vivo. In order to identify potential AEDs with this profile, compounds may be tested in the minimal clonic seizure (6 Hz or ‘psychomotor’) test (Barton et al., 2001). […] Test compounds are pre-administered to mice via i.p. injection. At varying times, individual mice (four per time point) are challenged with sufficient current delivered through corneal electrodes to elicit a psychomotor seizure in 97% of animals (32 mA for 3 s) (Toman et al., 1952). Untreated mice will display seizures characterized by a minimal clonic phase followed by stereotyped, automatistic behaviors described originally as being similar to the aura of human patients with partial seizures. Animals not displaying this behavior are considered protected. The test may be evaluated quantitatively by measuring the responses at varying doses at a determined time of peak effect (TPE). This test may also be conducted at 22 and 44 mA if requested by ASP staff.

Series [3] deals with Mice. Description: corneal kindling. The settings on record: Single IP drug dose, 3 secs; for ED50: read-out: Corn. Kind. ED50. In kind it is in vivo. From the text: Mice are kindled electrically with 3 sec stimulation, 8 mA, 60 Hz, and corneal electrodes to a criterion of 10 consecutive Stage 5 seizures (facial clonus and head nodding progressing to forelimb clonus, and finally rearing and falling accompanied by a generalized clonic seizure as described by Racine). Stage 5 is generally reached after twice daily stimulation for 8 days. With continued stimulation once a day, animals usually progress to a reproducible Stage 5 after 10-14 additional days. At least 72 hours after the mice have been kindled, the test substance is administered either i.p. or p.o. and, at the previously determined TPE, each animal is given the electrical stimulus indicated above. Following stimulation, the animals are observed for the presence or absence of the rearing and falling criteria of a Stage 5 seizure. Treated animals not displaying a Stage 3, 4, or 5 seizure are considered protected. The dose of the test substance is varied between the limits of 0 and 100% efficacy, and the ED50 (mean effective dose) and 95% confidence intervals calculated by probit analysis. Mean values and the S.E.M. are calculated for the length of clonus and seizure duration and p values are determined by the Student's t-test

The test system of series [4] is Mice. Description: subcutaneous Metrazol seizure threshold test (scMET). In kind it is in vivo. The settings on record: Single IP drug dose, Metrazol 85 mg/kg; up to 1500 mg/kg. The procedure: (§1) Subcutaneous injection of the convulsant Metrazol produces clonic seizures in laboratory animals. […] Animals are pretreated with various doses of the test compound given by i.p. injection. At the previously determined TPE of the test compound, the dose of Metrazol which will induce convulsions in 97% of animals (CD97; 85 mg/kg mice) is injected into a loose fold of skin in the midline of the neck. The animals are placed in isolation cages to minimize stress (Swinyard et al, 1961) and observed for the next 30 minutes for the presence or absence of a seizure. An episode of clonic spasms, approximately 3-5 seconds, of the fore and/or hindlimbs, jaws, or vibrissae is taken as the endpoint.

A further series deals with Rat. Described as above. The series is classed as in vivo. The following applies: 7 days IP, at 600 mg/kg, Metrazol 70 mg/kg. The protocol:
as §1

Series [5] has as its system Mice. Kind of series: subcutaneous picrotoxin (scPIC). The series is classed as in vivo. The following applies: Single IP drug dose, 2.5 mg/kg PIC; up to 100 mg/kg. The procedure: Bicuculline (Bic) and Picrotoxin (Pic) are chemoconvulsants that cause clonic seizures in a manner similar to Metrazol (see scMET test). […] Therefore, as much as possible it is useful to differentiate novel AEDs pharmacologically. […]. At a previously determined time of peak effect (TPE), the animals are given a subcutaneous injection of either of the noted chemo-convulsants using the convulsive dose (CD97—a dose of 2.7 or 2.5 mg/kg, for Bic and Pic, respectively). The experimental animals are placed in isolation cages to minimize possible crowding stresses (Swinyard et al., 1961) and observed for the next 30 minutes (for Bic) or 45 minutes (for Pic) for the presence or absence of a seizure. An episode of clonic spasms, approximately 3-5 seconds, of the fore and/or hindlimbs, jaws, or vibrissae is used as the experimental endpoint.

For series [6], the system named is Sprague-Dawley rats. The following applies: vigabatrin, earlier work; cited from earlier work.
In series [7] the test system is Sprague-Dawley rats. The following applies: vigabatrin, Ashby et al. 1999; cited from earlier work.
The subject of a further series is humans. The settings on record: trial of 103 subjects, cocaine dependence; cited from earlier work.
In the next series the test system is patients. The settings on record: cited from earlier work.
The subject of a further series is human brain GABA. The settings on record: after a single dose; cited from earlier work.
The next series concerns Sprague Dawley rats. Description: cocaine induced dopamine surge in nucleus accumbens (FIG. 3). The following applies: vigabatrin 300 mg/kg single dose.
The target of a further series is T1, human ρ1 GABAC receptors (Homo sapiens, UniProt P24046).
T1 construct: expressed in transfected cells; host or cells: Xenopus laevis oocytes injected with ρ1 mRNA
Description: GABAC receptor two-electrode voltage clamp in Xenopus laevis oocytes. The series is classed as cell-based. The settings on record: GABA 1 μM (EC80), clamped at −60 mV. The procedure:
Human ρ1 cDNA encapsulated in pcDNA1.1 was linearized with Not1. Linearized cDNA was transcribed to mRNA using the T7 “mMESSAGE mMACHINE” kit (Ambion Inc. Austin, Tex., USA) as previously described. […] Eur. J. Pharmacol. 2001, 430, 185-192. GABAC receptor activity assays were performed in oocytes harvested from Xenopus laevis (housed in the Department of Veterinary Science at the University of Sydney) and defolliculated. The oocytes were stored in ND96 solution (in mM) NaCl (96), KCl (2), MgCl2 (1), CaCl2 (1.8), HEPES (hemi-Na salt; 5) supplemented with sodium pyruvate (2.5), theophylline (0.5), and 50 μg/ml^−1 gentamycin for 2-5 days post-injection.
Electrophysiological methods were performed as previously described. Hertz L, Juurlink B H J, Hertz E, Fosmark H and Schousboe A. Preparation of Primary Cultures of Mouse (Rat) Astrocytes, in A Dissection and Tissue Culture Mnual of the Nervous System (Shahar A, de Vellis J, Vernadakis A and Haber B eds) pp 105-108, Alan R. Liss, Inc., New York, 1989 Stage V-VI oocytes were injected with 10 ng 50 nl^−1 of ρ1 mRNA and then stored at 16° C. Recordings of receptor activity were obtained for 2-5 days by a two-electrode voltage clamp by means of a Geneclamp 500 amplifier (Axon Instruments Inc., Foster City, Calif.), a MacLab 2e recorder (AD Instruments, Sydney, NSW), and Chart version 3.6.3 program. Oocytes were voltage clamped at −60 mV, and the preparation was continually perfused with ND96 solution at room temperature. […] Compound 2 (CPP-115) was tested on three oocytes from at least two harvests.
Background: Two-electrode voltage clamp is typically applied to oocytes expressing channels or transporters.

Another series addresses T2, hGAT-2 (Homo sapiens, UniProt Q9NSD5).
T2 construct: expressed in transfected cells; host or cells: tsA201 cells, transient (PolyFect)
The settings on record: data from Kvist et al. 2009; read-out: hGAT-2 uptake IC50; cited from earlier work.

The target of the next series is T3, hGAT-3 (Homo sapiens, UniProt P48066).
T3 construct: expressed in transfected cells; host or cells: tsA201 cells, transient (PolyFect)
The settings on record: data from Kvist et al. 2009; read-out: hGAT-3 uptake IC50; cited from earlier work.

The target of the next series is T4, mGAT2 (Mus musculus, UniProt P31651).
T4 construct: expressed in transfected cells
The following applies: data from Bolvig et al. 1999; read-out: mGAT2 uptake IC50; cited from earlier work.

Series [8] has as its system Sprague-Dawley rats. The following applies: saline/cocaine pairings, cocaine 20 mg/kg i.p.
Series [9] has as its system Sprague-Dawley rats. Kind of series: μPET imaging of 11C-raclopride binding after cocaine. The following applies: cocaine 5 mg/kg intravenous, average, preliminary.

γ-aminobutyric acid aminotransferase (GABA-AT), sequence (P80147 29-500): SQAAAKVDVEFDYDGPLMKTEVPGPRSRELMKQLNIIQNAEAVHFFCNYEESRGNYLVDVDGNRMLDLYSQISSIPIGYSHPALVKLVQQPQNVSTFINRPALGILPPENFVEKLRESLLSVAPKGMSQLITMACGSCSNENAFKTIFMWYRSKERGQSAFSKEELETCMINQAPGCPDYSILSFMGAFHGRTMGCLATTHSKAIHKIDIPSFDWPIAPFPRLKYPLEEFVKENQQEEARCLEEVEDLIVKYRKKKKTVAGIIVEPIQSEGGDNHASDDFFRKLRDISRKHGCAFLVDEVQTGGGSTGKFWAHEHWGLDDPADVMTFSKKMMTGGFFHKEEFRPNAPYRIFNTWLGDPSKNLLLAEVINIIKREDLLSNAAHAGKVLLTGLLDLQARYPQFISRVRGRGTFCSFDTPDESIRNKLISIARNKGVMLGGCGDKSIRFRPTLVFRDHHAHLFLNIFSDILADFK
T4 sequence (P31651 whole entry): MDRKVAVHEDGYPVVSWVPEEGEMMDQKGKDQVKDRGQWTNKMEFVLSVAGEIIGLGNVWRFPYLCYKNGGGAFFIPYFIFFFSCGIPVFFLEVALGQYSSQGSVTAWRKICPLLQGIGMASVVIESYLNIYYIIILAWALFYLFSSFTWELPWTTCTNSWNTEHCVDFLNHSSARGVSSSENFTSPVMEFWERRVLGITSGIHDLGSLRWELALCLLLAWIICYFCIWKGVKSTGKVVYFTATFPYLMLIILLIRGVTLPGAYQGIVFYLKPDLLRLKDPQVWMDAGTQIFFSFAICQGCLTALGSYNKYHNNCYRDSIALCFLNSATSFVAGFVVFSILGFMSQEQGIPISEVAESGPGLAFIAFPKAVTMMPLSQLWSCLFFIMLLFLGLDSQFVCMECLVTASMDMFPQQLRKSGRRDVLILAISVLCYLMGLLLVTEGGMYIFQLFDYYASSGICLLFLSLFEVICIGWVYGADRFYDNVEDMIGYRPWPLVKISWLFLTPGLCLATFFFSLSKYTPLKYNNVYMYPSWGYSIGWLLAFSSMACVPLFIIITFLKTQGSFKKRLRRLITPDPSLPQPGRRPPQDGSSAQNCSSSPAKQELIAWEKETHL
T2 sequence (Q9NSD5 whole entry): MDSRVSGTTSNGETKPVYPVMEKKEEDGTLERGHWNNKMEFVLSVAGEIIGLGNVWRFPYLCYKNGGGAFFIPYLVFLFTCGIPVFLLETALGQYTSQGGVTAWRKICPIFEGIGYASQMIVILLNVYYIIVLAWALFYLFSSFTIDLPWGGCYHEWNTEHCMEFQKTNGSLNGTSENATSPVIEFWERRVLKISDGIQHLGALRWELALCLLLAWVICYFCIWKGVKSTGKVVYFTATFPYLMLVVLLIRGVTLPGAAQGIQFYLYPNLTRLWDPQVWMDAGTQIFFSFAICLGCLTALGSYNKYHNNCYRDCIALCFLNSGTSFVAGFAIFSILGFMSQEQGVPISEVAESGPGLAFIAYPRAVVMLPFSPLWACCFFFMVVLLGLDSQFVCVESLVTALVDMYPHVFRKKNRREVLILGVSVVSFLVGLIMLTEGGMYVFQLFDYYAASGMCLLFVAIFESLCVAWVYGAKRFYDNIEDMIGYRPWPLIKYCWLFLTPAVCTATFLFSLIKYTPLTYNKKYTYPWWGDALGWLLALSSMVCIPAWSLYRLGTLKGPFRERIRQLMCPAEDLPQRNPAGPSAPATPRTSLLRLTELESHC
T3 sequence (P48066 whole entry): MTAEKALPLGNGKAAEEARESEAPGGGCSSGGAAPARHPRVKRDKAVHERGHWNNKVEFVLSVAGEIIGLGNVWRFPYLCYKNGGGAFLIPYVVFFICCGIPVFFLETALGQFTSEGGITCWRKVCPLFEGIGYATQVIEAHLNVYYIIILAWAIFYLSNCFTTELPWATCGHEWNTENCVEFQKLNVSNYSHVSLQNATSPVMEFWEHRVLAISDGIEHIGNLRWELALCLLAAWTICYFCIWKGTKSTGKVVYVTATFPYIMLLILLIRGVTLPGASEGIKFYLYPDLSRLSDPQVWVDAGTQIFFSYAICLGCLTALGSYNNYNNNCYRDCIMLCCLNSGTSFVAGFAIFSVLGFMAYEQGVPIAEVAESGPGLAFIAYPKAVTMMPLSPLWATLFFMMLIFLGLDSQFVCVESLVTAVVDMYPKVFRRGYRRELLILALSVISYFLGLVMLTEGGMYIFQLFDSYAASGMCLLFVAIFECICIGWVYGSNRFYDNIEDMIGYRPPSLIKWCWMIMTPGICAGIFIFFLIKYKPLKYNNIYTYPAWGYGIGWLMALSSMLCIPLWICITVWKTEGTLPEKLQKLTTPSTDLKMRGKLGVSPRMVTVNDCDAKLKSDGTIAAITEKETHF
T1 sequence (P24046 21-479 limits assumed): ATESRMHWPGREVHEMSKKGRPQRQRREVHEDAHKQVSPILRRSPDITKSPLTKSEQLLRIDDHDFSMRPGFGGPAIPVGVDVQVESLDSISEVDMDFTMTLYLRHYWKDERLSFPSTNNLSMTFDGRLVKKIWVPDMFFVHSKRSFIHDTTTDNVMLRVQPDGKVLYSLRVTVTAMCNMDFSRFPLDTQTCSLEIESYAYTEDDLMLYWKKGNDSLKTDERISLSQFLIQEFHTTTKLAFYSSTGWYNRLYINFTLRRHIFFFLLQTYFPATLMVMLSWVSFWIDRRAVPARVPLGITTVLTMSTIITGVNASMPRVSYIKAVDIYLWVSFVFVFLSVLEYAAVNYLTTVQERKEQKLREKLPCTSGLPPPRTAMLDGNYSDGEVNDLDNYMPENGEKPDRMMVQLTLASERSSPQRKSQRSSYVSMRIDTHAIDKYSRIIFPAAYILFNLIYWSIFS

As to `C=C1C[C@H](C(=O)O)C[C@@H]1N` [compound 6, (1S,3S)-3-amino-4-methylenyl-1-cyclopentanoic acid], in series [1] (without 2-mercaptoethanol), the “inactivation of GABA-AT” value is recorded as “inactivation of GABA-AT was observed”.

Regarding `C=CC(N)CCC(=O)O` (centres unmarked) [Vigabatrin, γ-vinyl GABA, reference compound], the ED50 came to 23.4 mg/kg in the series with Mice [2] (32 mA); 154 mg/kg with Mice [2] (44 mA); 80.4 mg/kg in the series on Mice [3] (192 h, primed @ 8 mA, 60 Hz, for 8 days); 159 mg/kg with Mice [3] (288 h, primed @ 3 mA, 50 Hz, for 12 days). For the same compound, the “6 Hz protection” value with Mice [2] (22 mA, all times @ 100 mg/kg) is ““good protection” @”. For the same compound, the “6 Hz TPE” value in the series with Mice [2] (32 mA) and in the series with Mice [2] (44 mA) was “TPE 4 hours” throughout. In addition, the “Corn. Kind. TPE” value in the series on Mice [3] (primed @ 8 mA, 60 Hz, for 8 days) is given as “TPE 4 hours”. The scMET protection entry with Mice [4] was “Minimal protection up”; in the series on Rat, 75% protection at 600. The scPIC protection result with Mice [5] is given as “Minimal protection up”. Moreover, the “dose required for similar findings (block of cocaine-induced CPP)” value in the series with Sprague-Dawley rats [6] is 300 mg/kg. Moreover, the “dose effective previously against cocaine-induced dopamine increase” value in the series with Sprague-Dawley rats [7] is 300 mg/kg. Also, in the series on humans, the “subjects who achieved abstinence” value is 28.0%. Besides, the “share of patients affected with visual field defects” value in the series on patients (after multiple years of therapy) is “One third or more of patients”. In addition, the “patients with visual field defects” value in the series on patients (following chronic administration) was 25-50%. In addition, the “occurrence of visual field defect” value with patients (shorter duration exposure, stimulant addiction studies) is “does not show any occurrence of visual field defect”. Further, in the series on patients (some patients), the “time after initiation of therapy at which visual field defects were detectable” value is “less than 2 months”. The “brain GABA levels” value in the series with human brain GABA is listed as “remain substantially elevated for several days”. The “dopamine increase after cocaine challenge” value in the series on Sprague Dawley rats was > 300% of baseline.

`NCCCC(=O)O` [GABA, γ-aminobutyric acid]: the “activation of current in oocytes” value at human ρ1 GABAC receptors is given as “activated an inward current”. The figures for the IC50 on hGAT-2, at hGAT-3 and at mGAT2 were 11 µM, 10 µM and 51 µM, respectively.

For the compound `N[C@@H]1C=C[C@H](C(=O)O)C1` [compound 1, (1R,4S)-4-amino-cyclopent-2-ene-1-carboxylic acid], in [1] (substrate of GABA-AT), the “specificity constant relative to GABA” value was “almost five times greater than that of GABA”.

Take `COC(=O)[C@H]1[C@@H](OC(=O)c2ccccc2)C[C@@H]2CC[C@H]1N2C` [cocaine, reference compound]: the “time spent in the other chamber” value in the series with Sprague-Dawley rats [8] was 4.8 ± 2.8 min. Besides, in the series on Sprague-Dawley rats [8] (p<0.01), the “time spent in cocaine-paired chamber” value came to 12.2 ± 1.7 min. For the same compound, the “reduction of 11C-raclopride binding” value in the series with Sprague-Dawley rats [9] turned out to be 22%.
